Laboratory results reported in patent US20160038532A1, “Treatment of Multiple Sclerosis With Combination of Laquinimod and Glatiramer Acetate” (TEVA PHARMACEUTICAL INDUSTRIES, LTD., priority 2011, published 2016).
Marks after values point to notes of the source that are not given here.

Assays:
MOG-induced EAE [1] = experiment: MOG-induced EAE, laquinimod alone and with GA blocking (Example 2.1), clinical signs; assay type: in vivo, C57B1/6 mice; details: GA-blocking 12.5 mg/kg (250 μg/mouse) in inoculum day 0
MOG-induced EAE [2] = experiment: MOG-induced EAE with GA blocking and s.c. daily GA (Example 2.4); assay type: in vivo, C57B1 mice
Protocol: The C57B1 strain of mouse was selected, as it is an established EAE model.
Laquinimod was administered daily orally for 30 days at dose level of 5.0 mg/kg or 25.0 mg/kg.
Disease was induced in the mice by the injection of the encephalitogenic emulsion (MOG/CFA). Laquinimod was administered orally for 30 consecutive days from the initiation of the study.
EAE induction EAE was induced by injecting the encephalitogenic mixture (emulsion) consisting of MOG (150.0 μg/mouse). A volume of 0.2 ml of emulsion was injected subcutaneously into the flanks of the mice. Pertussis toxin was injected intraperitoneally on the day of induction and 48 hours later (total amount was 0300 μg/mouse in 0.2 ml dosage volume).
The emulsion (for groups 2 and 3 and groups 1 and 4 to 8) were made from equal parts of oil and liquid portions (1:1) in two syringes connected to each other with Leur lock, transferred to insulin syringe and 0.2 ml was injected to the right flank of each mouse. The dose of the MOG in all the groups (1 to 8) was 150 μg/mouse.
The test concentrations of laquinimod were prepared in purified water. For high dose (25.0 mg/kg) 2.5 mg/mL stock solution were prepared (groups #3, 6 and 8). The stock solutions were diluted 1:5 to yield 0.5 mg/mL for dose level of 5.0 mg/kg for groups 5 and 7. Laquinimod was administered to the respective groups by gavage at a volume of 0.2 ml/mouse.
Every day one tube was thawed and brought to RT.
Clinical signs Scaring of EAE clinical signs was started from Day 10 post EAE induction and was continued daily until Day 30. The clinical signs were recorded according to a grading system described in the table 11 below
mice having scores of 1 and above were considered sick. When the first clinical sign appeared all mice were given food soaked in water, which was spread on different places on the bedding of the cages. An animal which continued to have score 4 for three days was killed on humane grounds and given score 5 on the next day. For calculation purposes, the score of animals that were sacrificed or died was carried forward.
• The number of sick animals in each group were summed. • The incidence of disease was calculated as
• The number of dead or moribund animals in each group were summed. • The mortality of disease was calculated as
• The mean duration of disease expressed in days was calculated as
• The mean onset of disease expressed in days was calculated as
• The mean maximal score (MMS) of each group was calculated as
• The daily scores of each mouse in the test group were summed and the Individual mean daily score (IMS) was calculated as […]

[3] = test system: relapsing remitting (RR) EAE; experiment: Relapsing remitting EAE in Biozzi mice, combination study (Example 2.6); assay type: in vivo
Protocol: EAE is an animal model for multiple sclerosis. In the Biozzi AB/H EAE mice, a RR EAE can be induced. […] Re-injection of an encephalitogen can induce a chronic relapsing disease that enables measuring long-term effects on subsequent relapses rather than immediate effects.
The EAE induction was performed according to procedure “RR-EAE.Biozzi” The Biozzi mice were weighed and injected subcutaneously and re-injected one week later with encephalitogenic agent (MSCH emulsion). 0.3 mL of the encephalitogenic agent containing 1.0 mg of MSCH and 200.0 μg of MT was injected subcutaneously, at two sites in the right flank of each mouse (0.15 mL at each site). The second injection was done in a similar manner in the left flank, one week later.
On the day of first injection of encephalotigen, the Biozzi mice were randomly allocated to eight treatment groups as follows: Tables 16-17.
The 5.0 mg/mL laquinimod stock solution was diluted 1:5 to yield 1 mg/mL.
The mice in all the groups were administered daily by oral gavage a volume dose level of […] of the respective test formulations from the day the mice are allocated to the treatment groups (first injection of encephalitogen) for 59 consecutive days until the termination of the study.
The mice were examined and scored according to the following table, until the termination of the study (60 days after initiation of treatment).
The activity of the test articles for the first and second phase of RR EAE was calculated by comparing the incidence of disease, mortality, onset and duration of disease, group mean score and mean maximal score to the control group. Calculations were carried separately and together for the first and the second relapse.

[4] = GA blocking 12.5 mg/kg once with encephalitogen, alone or + LAQ 25.0 mg/kg oral daily 30 d
[5] = GA blocking 12.5 mg/kg once with encephalitogen, alone or + LAQ 25.0 mg/kg oral daily 30 d, listed as GA blocking
[6] = first and second attacks together, GA 12.5 mg/kg oral daily 59 d
[7] = first attack, GA 12.5 mg/kg oral daily
[8] = second attack, GA 12.5 mg/kg oral daily

## L-glutamic acid polymer with L-alanine, L-lysine and L-tyrosine, acetate (salt) [GA]
MOG-induced EAE [1]
  % inhibition compared to Control (GMS): 48%
  Group Mean Score: 1.70**
  Incidence: 14/16
  Mean Disease Duration: 10.9*** days
  Mean Maximal Score: 3.34**
  Mean Onset: 19.5* days
MOG-induced EAE [2]; GA 250 mg/kg s.c. daily 10 d
  % Inhibition 1 (incidence): 23.5%
  GMS % Inhibition 3: 38.1%
  GMS value: 1.3 ± 1.1
  Incidence: 13/20
  MMS % Inhibition 2: 26.5%
  MMS value: 2.5 ± 1.9
  Mean Duration: 8.3 ± 6.7 days
  Mean Onset: 22.5 ± 6.7 days
MOG-induced EAE [2]; [4]
  % Inhibition 1 (incidence): 52.9%
  GMS value: 0.5 ± 0.9
  Incidence: 8/20
  MMS % Inhibition 2: 70.6%
  Mean Duration: 4.3 ± 6.3 days
  Mean Onset: 26.6 ± 6.4 days
MOG-induced EAE [2]; [5]
  GMS % Inhibition 3: 76.2%
  MMS value: 1.0 ± 1.5
MOG-induced EAE [2]; GA blocking 12.5 mg/kg once with encephalitogen, alone or + LAQ 25.0 mg/kg oral daily 30 d, listed as GA-Block
  GMS % Inhibition 3: (76.2) %
[3]; [6]
  GMS % inhibition: 21.7%
  GMS value: 1.8
  Incidence: 12/14
  Incidence % inhibition: 7.7%
  MMS % inhibition: 0.0%
  MMS value: 3.6
  Mean Duration: 23.8 ± 16.2 days
[3]; [7]
  % Inhibition 1 (incidence): 7.7%
  IMS % Inhibition 3: 15.6%
  IMS value: 58.6 ± 70.5
  Incidence: 12/14
  MMS % Inhibition 2: 2.8%
  MMS value: 3.5 ± 1.6
  Mean Duration: 15.7 ± 14.0 days
[3]; [8]
  % Inhibition 1 (incidence): 31.2%
  IMS % Inhibition 3: 35.5%
  IMS value: 30.5 ± 33.0
  Incidence: 6/12
  MMS % Inhibition 2: 31.0%
  MMS value: 2.0 ± 1.7
  Mean Duration: 9.4 ± 10.5 days
